Assays:
Type in all cases: cell-based
[1] = tested on: human T cell line KARPAS-299; test: Proliferation of KARPAS-299 cells (WST-1 cell proliferation assay); settings: single and simultaneous administration of I49 and APN inhibitors (Actinonin and Probestin); FIG. 8
Protocol: FIG. 8: The KARPAS-299 cells were incubated without addition (control) and in the presence of single inhibitors mentioned above as well as in the presence of combinations thereof, respectively. Subsequently, the number of metabolically active cells was determined by using the commercially available WST-1 cell proliferation assay (Takara Inc.) in accordance with the provisions of the manufacturer.

[2] = tested on: human peripheric mononuclear cells (MNZ); test: Proliferation of PHA-activated human mononuclear cells (WST-1 cell proliferation assay); settings: 72 h; for Proliferation of human peripheric mononuclear cells (MNZ), number of metabolically active cells: single and simultaneous administration of I49 and Actinonin, PHA, FIG. 7; for Proliferation of PHA-activated human mononuclear cells (MNZ), number of metabolically active cells: single or simultaneous administration of I49 and Apstatin (X-Pro-aminopeptidase inhibitor), FIG. 10
Protocol: FIG. 7: The MNZ were incubated for a time period of 72 h without addition (control), with an addition of the mitogenic lectin phytohemagglutinin (PHA), and with the addition of PHA and the inhibitors mentioned above, respectively. Subsequently, the number amount of metabolically active cells was determined by using the commercially available WST-1 cell proliferation assay (Takara Inc.) in accordance with the provisions of the manufacturer.
FIG. 10: The mononuclear cells (MNZ) were incubated for a time period of 72 h in the presence of the inhibitors mentioned above single and in combination. Subsequently, the number of metabolically active cells was determined by using the commercially available WST-1 cell proliferation assay (Takara Inc.) in accordance with the provisions of the manufacturer.

[3] = tested on: human peripheric mononuclear cells (MNZ); test: DNA synthesis of human peripheric mononuclear cells (3[H]-thymidine incorporation); settings: 72 h incubation
Protocol: The MNZ were incubated for 72 h in the presence of said inhibitors, and the DNA synthesis rate was determined subsequently by the measurement of the ^3[H]-thymidine incorporation, as was described by Reinhold et al. [D. Reinhold et al.: “Inhibitors of dipeptidyl peptidase IV induce secretion of transforming growth factor β1 in PWM-stimulated PBMNC and T cells”, Immunology 1997, 91, 354-360].
(§1) Human MNZ were incubated for three days with the concentrations of inhibitors mentioned above. Subsequently, ^3[H]-methyl thymidine was added to the culture medium, and the amount of ^3[H]-thymidine incorporated into the DNA was measured after further 6 hours.

[4] = tested on: human peripheric T lymphocytes; test: DNA synthesis of human T lymphocytes (3[H]-thymidine incorporation); settings: 72 h incubation; for DNA synthesis of human peripheric T lymphocytes: simultaneous administration of I49 (DP IV inhibitor) and Actinonin (APN inhibitor), FIG. 1
Protocol: The T cells were incubated for 72 h in the presence of said inhibitors and subsequently, the DNA synthesis rate was determined via a measurement of the ^3[H]-thymidin incorporation, as was described by Reinhold et al. [D. Reinhold et al.: “Inhibitors of dipeptidyl peptidase IV induce secretion of transforming growth factor β1 in PWM-stimulated PBMNC and T cells”, Immunology 1997, 91, 354-360].
Human peripheric T cells were incubated over 3 days with the concentrations of the inhibitors shown. Subsequently, ^3[H]-methyl thymidine was added to the culture medium, and the amount of ^3[H]-thymidine inserted into the DNA was measured after further 6 hours.
The T cells were incubated for 72 h in the presence of said inhibitors, and the DNA synthesis rate was determined subsequently by the measurement of the ^3[H]-thymidine incorporation, as was described by Reinhold et al. [D. Reinhold et al.: “Inhibitors of dipeptidyl peptidase IV induce secretion of transforming growth factor β1 in PWM-stimulated PBMNC and T cells”, Immunology 1997, 91, 354-360].
as §1, with “FIG. 3 show a the synergistic and dose-dependent effect of inhibitors of DP IV (I49) and of prolyl oligopeptidase (Boc-Ala-Thia) on the DNA synthesis of human peripheric T lymphocytes. Human” for “Human”, “T cells” for “MNZ”
Human T cells were incubated for three days with the concentrations of inhibitors mentioned above. Subsequently, ^3[H]-methyl thymidine was added to the culture medium, and the amount of ^3[H]-thymidine incorporated into the DNA was measured after further 6 hours.

[5] = tested on: activated human peripheric T cells; test: Proliferation of activated human peripheric T cells (WST-1 cell proliferation assay); settings: single or simultaneous administration of I49 and APN inhibitors (Actinonin and Probestin); activated with phytohemagglutinine and phorbol-12-myristate-13-acetate; 72 h; FIG. 9
Protocol: FIG. 9: The T cells, with the exception of the untreated control, were activated by an addition of phytohemagglutinine and phorbol-12-myristate-13-acetate to the culture medium and were incubated for a time period of 72 h in the presence of the above-mentioned inhibitors single and in combination. Subsequently, the number of metabolically active cells was determined by using the commercially available WST-1 cell proliferation assay (Takara Inc.) in accordance with the provisions of the manufacturer.

[6] = simultaneous administration of I49 (DP IV inhibitor) and actinonine (APN inhibitor), FIG. 2
[7] = simultaneous administration of I49 (DP IV inhibitor) and Boc-Ala-Thiazolidid (prolyl oligopeptidase inhibitor), FIG. 4
[8] = simultaneous administration of I49 (DP IV inhibitor) and Boc-Ala-thiazolidid (prolyl oligopeptidase inhibitor), FIG. 3
[9] = simultaneous administration of I49 (DP IV inhibitor) and Captopril (ACE inhibitor), FIG. 6
[10] = simultaneous administration of I49 (DP IV inhibitor) and Captopril (ACE inhibitor), FIG. 5

## CCCCC[C@H](CC(=O)NO)C(=O)N[C@H](C(=O)N1CCC[C@H]1CO)C(C)C [Actinonin]
[1]
  Proliferation of the human T cell line KARPAS-299, number of metabolically active cells: Inhibition of the Proliferation
[2]
  Proliferation of human peripheric mononuclear cells (MNZ), number of metabolically active cells: Inhibition of the Proliferation
[3]; [6]
  DNA synthesis of human peripheric mononuclear cells (MNZ): inhibited in a superadditive manner
[4]
  DNA synthesis of human peripheric T lymphocytes: inhibited in a superadditive manner
[5]
  Proliferation of activated human peripheric T cells, number of metabolically active cells: Inhibition of the Proliferation

## C[C@H](NC(=O)[C@@H]1CCCN1C(=O)[C@@H]1CCCN1C(=O)[C@@H](O)[C@H](N)Cc1ccccc1)C(N)=O [Apstatin]
[2]
  Proliferation of PHA-activated human mononuclear cells (MNZ), number of metabolically active cells: Inhibition of the Proliferation

## CC(NC(=O)OC(C)(C)C)C(=O)N1CCSC1 (stereo not drawn) [Boc-Ala-thiazolidid]
[3]; [7]
  DNA synthesis of human peripheric mononuclear cells (MNZ): inhibited in a superadditive manner
[4]; [8]
  DNA synthesis of human T lymphocytes: inhibited in a superadditive manner

## C[C@H](CS)C(=O)N1CCC[C@H]1C(=O)O [Captopril]
[3]; [9]
  DNA synthesis of human peripheric mononuclear cells (MNZ): inhibited in a superadditive manner
[4]; [10]
  DNA synthesis of human T lymphocytes: inhibited in a superadditive manner

## NC(CCCCNC(=O)OCc1ccc([N+](=O)[O-])cc1)C(=O)N1CCSC1 (stereo not shown) [I49, Lys[Z(NO2)]-thiazolidid]
[1]
  Proliferation of the human T cell line KARPAS-299, number of metabolically active cells: Inhibition of the Proliferation
[2]
  Proliferation of human peripheric mononuclear cells (MNZ), number of metabolically active cells: Inhibition of the Proliferation
  Proliferation of PHA-activated human mononuclear cells (MNZ), number of metabolically active cells: Inhibition of the Proliferation
[3]; [7]
  DNA synthesis of human peripheric mononuclear cells (MNZ): inhibited in a superadditive manner
[3]; [9]
  DNA synthesis of human peripheric mononuclear cells (MNZ): inhibited in a superadditive manner
[3]; [6]
  DNA synthesis of human peripheric mononuclear cells (MNZ): inhibited in a superadditive manner
[4]
  DNA synthesis of human peripheric T lymphocytes: inhibited in a superadditive manner
[4]; [8]
  DNA synthesis of human T lymphocytes: inhibited in a superadditive manner
[4]; [10]
  DNA synthesis of human T lymphocytes: inhibited in a superadditive manner
[5]
  Proliferation of activated human peripheric T cells, number of metabolically active cells: Inhibition of the Proliferation

## CC(C)C[C@H](NC(=O)[C@@H](O)[C@H](N)Cc1ccccc1)C(=O)N1CCC[C@H]1C(=O)N1CCC[C@H]1C(=O)O [Probestin]
[1]
  Proliferation of the human T cell line KARPAS-299, number of metabolically active cells: Inhibition of the Proliferation
[5]
  Proliferation of activated human peripheric T cells, number of metabolically active cells: Inhibition of the Proliferation
